The values that follow come from publication PMC4721062, “Oxadiazole-2-oxides may have other functional targets, in addition to SjTGR, through which they cause mortality in Schistosoma japonicum” (Parasites & Vectors, 2016).

Read-outs that look alike come from different tables or passages of the source.

Experiment [1] has as its target T1, recombinant SjTGR (Schistosoma japonicum, UniProt B5THG7).
T1 sequence (B5THG7 1-596): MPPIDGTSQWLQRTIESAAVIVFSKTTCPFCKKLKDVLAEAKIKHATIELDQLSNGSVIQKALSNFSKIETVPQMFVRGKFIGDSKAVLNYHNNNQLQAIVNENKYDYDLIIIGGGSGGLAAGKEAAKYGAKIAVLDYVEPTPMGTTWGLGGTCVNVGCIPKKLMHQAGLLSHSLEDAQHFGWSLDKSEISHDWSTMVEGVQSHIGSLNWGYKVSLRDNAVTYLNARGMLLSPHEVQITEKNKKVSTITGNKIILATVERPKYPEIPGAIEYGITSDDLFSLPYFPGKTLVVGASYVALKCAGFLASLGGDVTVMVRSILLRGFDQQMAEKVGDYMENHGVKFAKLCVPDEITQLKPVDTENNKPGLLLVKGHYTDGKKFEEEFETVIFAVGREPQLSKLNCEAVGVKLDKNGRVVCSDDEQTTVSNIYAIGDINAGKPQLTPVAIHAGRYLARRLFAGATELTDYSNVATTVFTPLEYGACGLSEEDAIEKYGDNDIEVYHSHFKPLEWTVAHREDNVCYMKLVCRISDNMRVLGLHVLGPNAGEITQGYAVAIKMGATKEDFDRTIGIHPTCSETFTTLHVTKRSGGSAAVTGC
The experiment in a line: Inhibition of TrxR activity of recombinant SjTGR (DTNB assay). Format: biochemical. The settings on record: IC50 of SjTGR, 50 nM SjTGR, 1 mM NADPH, 15 min preincubation, DTNB reduction. The essentials: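 SjTGR (50 nM) preincubated 15 min at room temperature with 1 mM NADPH and oxadiazole-2-oxides (2-20 μM). Reaction started with potassium phosphate pH 7.4, 10 mM EDTA, 100 μM NADPH, 3 mM DTNB; A412 increase followed over first 2 min, triplicates.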

The test system of experiment [2] is juvenile S. japonicum. The experiment in a line: microbe, parasite or virus in culture. Format: cell-based. As to conditions: juvenile worms. The essentials:
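Juvenile S. japonicum, 20–30 tail-shed cercariae per well, were exposed to compounds at 2, 5, 10 and 50 μM in RPMI 1640 with 10% FBS and HEPES. Survival was scored microscopically at 24, 48 and 72 h, with death defined by disrupted internal structure or tegument or 1 min without motility. % D is dead/total, averaged over three experiments.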

Experiment [3] deals with juvenile S. japonicum in mice. The experiment in a line: Treatment of infected mice at juvenile worm stage. The format is in vivo, Schistosoma japonicum (ICR mice). As to conditions: 10 mg/kg i.p. daily for 5 days from day 7 post-infection. On the procedure: The abdominal skin of each mouse (ICR, female, 22–24 g) was exposed to 20 S. japonica cercariae (as described above). The mice were intraperitoneally injected with 10 mg/kg oxadiazole-2-oxides daily for 5 days, beginning either 7 or 35 days post-infection. Control mice were treated with 10 mg/kg of the carrier medium. All mice were sacrificed 42 days post-infection. The worm burden of each mouse was confirmed by counting the number of worms observed from a portal vein perfusion. The mouse livers were digested overnight with 5 % potassium hydroxyl solution at 37 °C and the eggs in the liver tissue were counted under an inverted phase contrast microscope. The worm and egg reduction rates were calculated using the following formulas: Wormreductionrate%=meannumberofadultwormspermouseincontrolgroup−meannumberofadultwormspermouseinexperimentalgroup/meannumberofadultwormspermouseincontrolgroup. Eggreductionrate%=meannumberofeggspermouseincontrolgroup−meannumberofeggspermouseinexperimentalgroup/meannumberofeggspermouseincontrolgroup.

The mark [4] stands for this setting: Schistosoma japonicum, 24 h, read-out: Killing activity 24hr.
Where [5] appears, read: Schistosoma japonicum, 48 h, read-out: Killing activity 48hr.
The mark [6] stands for this setting: Schistosoma japonicum, 72 h, read-out: Killing activity 72hr.

`C[C@@H]1CC[C@H]2[C@@H](C)C(=O)O[C@@H]3O[C@@]4(C)CC[C@@H]1[C@]32OO4` [AS, artemisinin, reference compound]: the IC50 (in general, the concentration at which inhibition is half-maximal) in experiment [1] is over 20 µM. The values for the killing at 2 µM in experiment [2] (setting [4]), in experiment [2] (setting [5]) and in experiment [2] (setting [6]) were 16.2%, 24.3% and 32.4%, respectively. The killing at 5 µM in experiment [2] (setting [4]) amounted to 34.1%; in experiment [2] (setting [5]), 36.4%; in experiment [2] (setting [6]) it was 40.9%. Moreover, the killing at 50 µM stood at 51.3% in experiment [2] (Schistosoma japonicum, 50 μM, 24 h, read-out: Killing activity 24hr); 66.7% in experiment [2] (Schistosoma japonicum, 50 μM, 48 h, read-out: Killing activity 48hr); 76.9% in experiment [2] (Schistosoma japonicum, 50 μM, 72 h, read-out: Killing activity 72hr). The mortality (commonly the percentage killed) at 50 µM in experiment [2] (Schistosoma japonicum, 50 μM, 24 h, read-out: Mortality of juvenile worms) was found to be 51.3 ± 5.1%. Further, the “Killing activity 24hr” value in experiment [2] (10 μM, 24 h) is reported as 47.6%D. Besides, the “Killing activity 48hr” value in experiment [2] (10 μM, 48 h) was determined as 66.7%D. Also, the “Killing activity 72hr” value in experiment [2] (10 μM, 72 h) was 71.4%D. Also, the “Number of eggs per gram of liver (Mean ± SD)” value in experiment [3] (sacrificed day 42) is on record as 2,932.2 ± 1,149.3. Moreover, the “Number of worms (Mean ± SD)” value in experiment [3] (sacrificed day 42) was 2.3 ± 1.0. Also, the Egg reduction rate in experiment [3] (versus control) was 63.5 (P < 0.01^*) %. In addition, the Worm reduction rate in experiment [3] (versus control, 10 mg/kg) is 78.5 (P < 0.01^*) %.
